Reference: PubChem BioAssay (NCI)
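Each compound was tested at five concentrations against cells in 96-well plates for 48 hours. TGI: total growth inhibition.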

Columns and labels:
Experiment in all cases: DTP human tumour cell line panel, 48 h
[1] = test system: 786-0 renal
[2] = test system: DLD-1 colon
[3] = test system: DMS 114 small cell lung
[4] = test system: DMS 273 small cell lung
[5] = test system: HCT-116 colon
[6] = test system: HT29 colon
[7] = test system: K-562 leukemia
[8] = test system: KM20L2 colon
[9] = test system: LOX IMVI melanoma
[10] = test system: LXFL 529 NSCLC
[11] = test system: M19-MEL melanoma
[12] = test system: SNB-78 CNS
[13] = test system: XF 498 CNS

CCOC(=O)C(C)NC(=O)NC12CC3CC(CC(F)(C3)C1)C2 (configuration not stated)
TGI [1]: > 100 µM | TGI [2]: > 100 µM | TGI [3]: > 100 µM | TGI [4]: > 100 µM | TGI [5]: > 100 µM | TGI [6]: > 100 µM | TGI [7]: > 100 µM | TGI [8]: > 100 µM | TGI [9]: > 100 µM | TGI [10]: > 100 µM | TGI [11]: > 100 µM | TGI [12]: 83.3 µM | TGI [13]: 89.4 µM

N#C/C(c1nc2ccccc2[nH]1)=c1\s/c(=C/c2ccccc2)c(=O)n1-c1ccccc1
TGI [1]: > 100 µM | TGI [2]: > 100 µM | TGI [3]: > 100 µM | TGI [4]: > 100 µM | TGI [5]: > 100 µM | TGI [7]: > 100 µM | TGI [8]: > 100 µM | TGI [9]: > 100 µM | TGI [10]: > 100 µM | TGI [11]: > 100 µM | TGI [13]: > 100 µM

FC(F)(F)c1ccc2c(-c3cc[nH]c3)ccnc2c1
TGI [1]: 32.1 µM | TGI [5]: > 100 µM | TGI [6]: 39.2 µM | TGI [7]: > 100 µM | TGI [9]: 48.9 µM

S=C(NCCc1ccccn1)N/N=C(\c1ccccc1)c1ccccn1
TGI [1]: > 56.8 µM | TGI [5]: > 100 µM | TGI [6]: 21.7 µM | TGI [7]: > 100 µM | TGI [9]: 36.1 µM

COc1cccc(C2=NC(C(C)C)CO2)c1OC (configuration not stated)
TGI [1]: > 100 µM | TGI [2]: > 100 µM | TGI [3]: > 100 µM | TGI [4]: > 100 µM | TGI [6]: > 100 µM | TGI [7]: > 100 µM | TGI [8]: > 100 µM | TGI [9]: > 100 µM | TGI [10]: > 100 µM | TGI [11]: > 100 µM | TGI [12]: > 100 µM | TGI [13]: > 100 µM

CCS1=C2C(=O)CC(C)(C)CC2=Nc2ccccc21 (configuration not stated)
TGI [1]: > 100 µM | TGI [5]: > 100 µM | TGI [6]: > 100 µM | TGI [7]: > 100 µM | TGI [9]: > 100 µM

N#Cc1ccc(C2ON=C(c3ccccc3)N2C23CC4CC(CC(C4)C2)C3)cc1 (configuration not stated)
TGI [1]: > 10 µM | TGI [5]: > 10 µM | TGI [6]: > 10 µM | TGI [7]: > 10 µM | TGI [9]: > 10 µM

COc1c(Sc2c(SCSc3cnc4ccccc4c3Sc3cnc4ccccc4c3OC)cnc3ccccc23)cnc2ccccc12
TGI [1]: > 100 µM | TGI [5]: > 100 µM | TGI [6]: > 100 µM | TGI [9]: > 100 µM

O=C1NC(=O)C(CCC(=O)c2cccc3ccccc23)C(=O)N1
TGI [1]: > 100 µM | TGI [5]: > 100 µM | TGI [6]: > 100 µM | TGI [7]: > 100 µM | TGI [9]: > 100 µM

COc1cc(/C=C2\CCC(C)C3=C2N=c2s/c(=C/c4ccc(Cl)cc4)c(=O)n2C3c2cc(OC)c(OC)c(OC)c2)cc(OC)c1OC (configuration not stated)
TGI [1]: > 100 µM | TGI [5]: > 100 µM | TGI [6]: > 100 µM | TGI [7]: > 100 µM | TGI [9]: > 100 µM

COCN1C(=O)[C@@H]2C[C@@H](O)CN2C(=O)c2ccccc21
TGI [1]: > 100 µM | TGI [5]: > 100 µM | TGI [6]: > 100 µM | TGI [7]: > 100 µM | TGI [9]: > 100 µM

Cn1c(-c2ccccc2)cc(-c2ccc3c(c2)OCO3)c1-c1ccsc1
TGI [1]: > 100 µM | TGI [5]: > 100 µM | TGI [6]: > 100 µM | TGI [7]: > 100 µM | TGI [9]: > 100 µM

O=C(O)CCC(NC(=O)c1ccc(Oc2nc3ccccc3nc2C(=O)O)cc1)C(=O)O (configuration not stated)
TGI [1]: > 100 µM | TGI [5]: > 100 µM | TGI [6]: > 100 µM | TGI [7]: > 100 µM | TGI [9]: > 100 µM

CCCCCCCCCCC/C=C(/C(=O)CCCO[Si](C)(C)C(C)(C)C)C(=O)OC
TGI [1]: > 100 µM | TGI [5]: > 100 µM | TGI [6]: > 100 µM | TGI [7]: > 100 µM | TGI [9]: > 100 µM

CC(=O)NC1=NC(=O)/C(=C/c2ccccc2Cl)N1C
TGI [1]: > 100 µM | TGI [5]: > 100 µM | TGI [6]: > 100 µM | TGI [9]: > 100 µM

O=C1c2cc3c(cc2CC12Cc1ccccc1C2)CCC3
TGI [1]: 64.8 µM | TGI [5]: 47.5 µM | TGI [6]: 50.5 µM | TGI [7]: > 100 µM | TGI [9]: 36 µM

Cc1ccc(C(=O)NC2CCCCC2)cc1N=NN(C)C
TGI [1]: > 100 µM | TGI [2]: > 100 µM | TGI [4]: > 100 µM | TGI [5]: > 100 µM | TGI [6]: > 100 µM | TGI [8]: > 100 µM | TGI [9]: > 100 µM | TGI [10]: > 100 µM | TGI [11]: > 100 µM | TGI [12]: > 100 µM

COc1cc(C2c3cc4c(cc3OC(NNC(N)=S)C2C)OCO4)cc(OC)c1OC (configuration not stated)
TGI [1]: > 100 µM | TGI [5]: > 80.7 µM | TGI [6]: 2.6 µM | TGI [7]: > 100 µM | TGI [9]: > 100 µM

COc1ccccc1NC1Oc2cc3c(cc2C(c2cc(OC)c(OC)c(OC)c2)C1C)OCO3 (configuration not stated)
TGI [1]: 36.8 µM | TGI [5]: > 33.1 µM | TGI [6]: > 100 µM | TGI [7]: 12.5 µM | TGI [9]: > 100 µM

COC(=O)C1(Cc2ccccc2)Cc2ccccc2C1O (configuration not stated)
TGI [1]: > 100 µM | TGI [5]: > 100 µM | TGI [6]: > 100 µM | TGI [7]: > 100 µM | TGI [9]: > 100 µM

COc1ccc(C2(CC(C)C)CCNC2)cc1OC (configuration not stated)
TGI [1]: > 100 µM | TGI [5]: > 100 µM | TGI [6]: > 100 µM | TGI [7]: > 100 µM | TGI [9]: > 100 µM

Cc1n[nH]c(=O)n1C1CC1
TGI [1]: > 100 µM | TGI [5]: > 100 µM | TGI [6]: > 100 µM | TGI [7]: > 100 µM | TGI [9]: > 100 µM

Cc1ccc(S(=O)(=O)C2=Cc3ccccc3C2(O)c2ccccc2)cc1 (configuration not stated)
TGI [1]: > 10 µM | TGI [5]: > 100 µM | TGI [6]: 36.1 µM | TGI [7]: 76.5 µM | TGI [9]: 34.2 µM

Cc1cc(C)n(-c2nc(-n3nc(C)cc3C)nc(-n3nc(C)cc3C)n2)n1
TGI [1]: > 100 µM | TGI [5]: > 100 µM | TGI [6]: > 100 µM | TGI [7]: > 100 µM | TGI [9]: > 100 µM

CCCC(=O)OCC1OC(n2cc(F)c(=O)[nH]c2=O)C(F)C1O (configuration not stated)
TGI [1]: > 100 µM | TGI [5]: > 100 µM | TGI [6]: > 100 µM | TGI [7]: > 100 µM | TGI [9]: > 100 µM

Cc1nc(C(N)=S)sc1C(=O)CC(=O)C(=O)Nc1ccc(Br)cc1
TGI [1]: > 100 µM | TGI [5]: > 100 µM | TGI [6]: > 100 µM | TGI [7]: > 100 µM | TGI [9]: > 100 µM

C/C(=N\O)c1ccc(OCc2cc(C(F)(F)F)cc(C(F)(F)F)c2)cc1
TGI [1]: > 100 µM | TGI [5]: > 100 µM | TGI [6]: > 100 µM | TGI [7]: > 100 µM | TGI [9]: > 100 µM

CCOC(=O)c1cc(=O)c2cccc3c2n1CCS3
TGI [1]: > 100 µM | TGI [5]: > 100 µM | TGI [6]: > 100 µM | TGI [9]: > 100 µM

Cc1ccc(S(=O)(=O)N(CCN)c2cc3c4c(c2)Oc2cccc5c2C4c2c(cccc2O3)O5)cc1
TGI [1]: 30.2 µM | TGI [5]: 30.5 µM | TGI [6]: 28.6 µM | TGI [7]: > 100 µM | TGI [9]: 73.4 µM

CCOC(=O)C1CCCc2sc(N)c(C#N)c21 (configuration not stated)
TGI [1]: > 100 µM | TGI [5]: > 100 µM | TGI [6]: > 100 µM | TGI [7]: > 100 µM
